“Also recorded” adds a separate entry of the source.

Data set [1] can be described thus: Subcutaneous Pentylenetetrazol (Metrazol) Seizure Threshold Test. The data set is classed as in vivo, male Carworth Farms #1 mice or Sprague-Dawley rats. The following applies: for Lowest effective dose, Metrazol (Phase I): Table X.
The nature of data set [2]: Anticonvulsant activity, both or unspecified seizure models. The data set is classed as in vivo, male Carworth Farms #1 mice or Sprague-Dawley rats.
The nature of data set [3]: Lethality / acute toxicity (LD50 in 24 hours). Conditions: for Lethality (in words): dose and time given in the source; for Doses causing death in some of the test groups: in vivo.
Text: Test compounds were either dissolved in 0.9% saline, or suspended in either 30% polyethylene glycol 400 in 0.9% saline or 0.2% suspending agent like polyoxyethylene glycol or Tween 80 in 0.9% saline prior to injection into male Carworth Farms #1 mice or Sprague-Dawley rats.
In Phase I identification of anticonvulsant activity, test compounds were given intraperitoneally (IP) at 30, 100, 300 and, in some cases, 600 milligrams per kilogram (mg/kg) of body weight and protection against Maximal Electroshock and/or Metrazol-induced seizures was determined 30 minutes, 4 hours, or later. […] Subsequently the routine protocol was modified and certain of the test compounds (see Tables, infra) re-evaluated following subcutaneous (SC) injection at periods of up to 8 hours post injection.
All statistics were obtained by probit analyses.
A short description of data set [4]: Maximal Electroshock Seizure Test. The class given is in vivo, male Carworth Farms #1 mice or Sprague-Dawley rats. The following applies: for Lowest effective dose, MES (Phase I): Table X.

Turning to `CC(=O)Nc1ccc(C(=O)[O-])c(O)c1.CC(=O)Nc1ccc(C(=O)[O-])c(O)c1.[Cu+2]` [Cu(II)(4-acetylaminosalicylate)2], in data set [1] (Table II, IP), the “Anticonvulsant activity, Metrazol (Phase I)” value is “I”. In addition, the “Anticonvulsant activity (in words)” value in data set [2] (running text) was “effective in preventing seizures”. Also, in data set [3], the “Lethality (in words)” value is “Lethal at 100 mg/kg at 4 hours”.
`Nc1ccc(C(=O)[O-])c(O)c1.Nc1ccc(C(=O)[O-])c(O)c1.[Cu+2]` [Cu(II)(4-aminosalicylate)2]: in data set [4] (Table II, IP), the “Anticonvulsant activity, Maximal Electroshock (Phase I)” value was “I”. In addition, the “Anticonvulsant activity (in words)” value in data set [2] (running text) is listed as “effective in preventing seizures”. Further, in data set [3], the “Doses causing death in some of the test groups” value was “higher than 300 mg/kg” and the “Lethality (in words)” value is on record as “Lethal at higher doses”.
On to `O=C([O-])c1ccc([N+](=O)[O-])cc1O.O=C([O-])c1ccc([N+](=O)[O-])cc1O.[Cu+2]` [Cu(II)(4-nitrosalicylate)2], for which the “Anticonvulsant activity, Maximal Electroshock (Phase I)” value in data set [4] (Table II, IP) is “I”. For the same compound, the “Anticonvulsant activity (in words)” value in data set [2] (running text) is listed as “effective in preventing seizures”. For the same compound, in data set [3], the “Doses causing death in some of the test groups” value was “higher than 100 mg/kg”.
On to `CC[C@H](C)[C@H](N)C(=O)[O-].CC[C@H](C)[C@H](N)C(=O)[O-].[Cu+2]` [Cu(II)(L-isoleucinate)2], for which the “Anticonvulsant activity (in words)” value in data set [2] (listed as isoleucine complex) is “inhibited both the Maximal Electroshock and Metrazol-induced seizures in these Phase I tests”; in data set [2] (running text), “found to have anticonvulsant activity”. For the same compound, the “Lethality (in words)” value in data set [3] is reported as “Lethal at higher doses”.
As for `O=C(O)c1ccccc1[O-].O=C(O)c1ccccc1[O-].[Cu+2]` [Cu(II)(salicylate)2], the “ED50 for protection against Maximal Electroshock-induced seizures” value in data set [4] (Phase II, SC) was determined as 360 mg/kg. The “Time of peak effect, inhibition of Maximal Electroshock induced seizures” value in data set [4] (SC, 600 mg/kg, Phase II) is 7 h. Further, the “Inhibition of Maximal Electroshock-induced seizure” value in data set [4] (SC, 600 mg/kg, at 24 hours, Phase II) came out at 37%. Besides, in data set [4] (Table II, SC), the “Anticonvulsant activity, Maximal Electroshock (Phase I)” value was “I”. The “Protection against Maximal Electroshock-induced seizures (in words)” value in data set [4] (running text) was “onset of protection against Maximal Electroshock-induced seizure was slower but the activity was prolonged over the 24-hour period; also recorded: inactive in protecting against the Maximal Electroshock-induced seizure in routine Phase I studies; also recorded: active in protecting against this seizure when higher doses were used and the activity was evaluated at different time periods”. The “ED50 for protection against Metrazol-induced seizures” value in data set [1] (Phase II, SC) stood at 38 mg/kg. Besides, in data set [1] (SC, 100 mg/kg, Phase II), the “Time of peak effect, inhibition of Metrazol-induced seizures” value was 2 h. Also, the “Protection against Metrazol-induced seizures (in words)” value in data set [1] (running text) is given as “rapid onset of protection against the Metrazol-induced seizure which decreases over the extrapolated period of 7 hours”. Further, the “Anticonvulsant activity (in words)” value in data set [2] (running text) is “effective at the higher doses studied and for prolonged periods of up to 4 hours”. Also, the median lethal dose (LD50) in data set [3] (24-hour, Phase II) is given as 441 mg/kg.
As for Cu(II) Salicylidene-L-valinate, the “Anticonvulsant activity, Maximal Electroshock (Phase I)” value in data set [4] (Table IV, IP) is “I”; in data set [4] (Table IV, SC), “I”. The “Lethality (in words)” value in data set [3] is given as “Lethal at higher doses”; in data set [3] (listed as salicylidene-L-valinate complex) it was “caused lethality at higher doses”.
Turning to “Cu(II)α-methyl-α-phenylsuccinimide(H2 O)0.75”, the “Lowest effective dose, MES (Phase I)” value in data set [4] (IP, challenge time 30 min) is on record as 100 milligrams per kilogram of bod; in data set [4] (IP, challenge time 4 hrs), “I”; in data set [4] (SC, challenge time 30 min) it was 30 milligrams per kilogram of bod; in data set [4] (SC, challenge time 4 hrs), 100 milligrams per kilogram of bod. Also, the “Lowest effective dose, Metrazol (Phase I)” value in data set [1] (IP, challenge time 30 min) is 100 milligrams per kilogram of bod; in data set [1] (IP, challenge time 4 hrs), 100 milligrams per kilogram of bod; in data set [1] (SC, challenge time 30 min), 30 milligrams per kilogram of bod; in data set [1] (SC, challenge time 4 hrs), 600 milligrams per kilogram of bod. The “Anticonvulsant activity (in words)” value in data set [2] (running text) is “effective in preventing both types of seizure with rapid onsets of action and prolonged durations of action following subcutaneous and intraperitoneal administration”.
